Laboratory results taken from ChEMBL document CHEMBL1201862, “PubChem BioAssay data set” (2004).
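Protocol summary: plate cells (96-well), add compound at 5 concentrations, incubate 48 h, interpolate endpoints linearly. Here, GI50 denotes the concentration required for 50% inhibition of growth.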 Activity calls are given as the source filed them. Cut-off read from the data, not from the text of the source: active = GI50 up to about 1.1 µM and inactive = higher.

What was measured:
Test in all cases: inhibition of tumour cell growth, NCI panel, 48 h
A498 = tested on: A498
ACHN = tested on: ACHN
BT-549 = tested on: BT-549
CCRF-CEM = tested on: CCRF-CEM
HCT-15 = tested on: HCT-15
HL-60 = tested on: HL-60
HOP-92 = tested on: HOP-92
HT-29 = tested on: HT-29
K562 = tested on: K562
MCF7 = tested on: MCF7
MOLT-4 = tested on: MOLT-4
OVCAR-4 = tested on: OVCAR-4
SK-MEL-28 = tested on: SK-MEL-28
SK-MEL-2 = tested on: SK-MEL-2
SK-MEL-5 = tested on: SK-MEL-5
SK-OV-3 = tested on: SK-OV-3
SN12C = tested on: SN12C
SW-620 = tested on: SW-620
UACC-257 = tested on: UACC-257

Compound	GI50 (A498)	GI50 (ACHN)	GI50 (BT-549)	GI50 (CCRF-CEM)	GI50 (HCT-15) [µM]	GI50 (HL-60)	GI50 (HOP-92)	GI50 (HT-29)	GI50 (K562)	GI50 (MCF7)	GI50 (MOLT-4)	GI50 (OVCAR-4)	GI50 (SK-MEL-28)	GI50 (SK-MEL-2)	GI50 (SK-MEL-5)	GI50 (SK-OV-3)	GI50 (SN12C)	GI50 (SW-620)	GI50 (UACC-257)
O=C1Nc2ccccc2C1=Nc1ccc(S(=O)(=O)Nc2nccs2)cc1	> 100 µM (inactive)	> 100 µM (inactive)	> 100 µM (inactive)	> 100 µM (inactive)	> 100	> 100 µM (inactive)	> 100 µM (inactive)	> 100 µM (inactive)	> 100 µM (inactive)	> 100 µM (inactive)	> 100 µM (inactive)	> 100 µM (inactive)	> 100 µM (inactive)	> 100 µM (inactive)	> 100 µM (inactive)	> 100 µM (inactive)	> 100 µM (inactive)	> 100 µM (inactive)	> 100 µM (inactive)
CC1=C(O)C(=O)c2ccccc2C1=O	> 100 µM (inactive)	58.7 µM (inactive)	18.6 µM (inactive)	> 100 µM (inactive)	27	6.82 µM (inactive)	> 100 µM (inactive)	56.1 µM (inactive)	78.5 µM (inactive)	67.6 µM (inactive)	> 100 µM (inactive)	> 100 µM (inactive)	> 100 µM (inactive)	> 100 µM (inactive)	4.45 µM (inactive)	> 100 µM (inactive)	> 100 µM (inactive)	84.3 µM (inactive)	47.3 µM (inactive)
NCC1CCN(c2nc3ccccc3c3c2CCCC3)CC1	12.4 µM (inactive)	12.6 µM (inactive)	14.2 µM (inactive)	2.87 µM (inactive)	4.16	2.84 µM (inactive)	9.04 µM (inactive)	2.42 µM (inactive)	2.54 µM (inactive)	4.86 µM (inactive)	3.59 µM (inactive)	10.5 µM (inactive)	5.15 µM (inactive)	5.73 µM (inactive)	2.96 µM (inactive)	14.7 µM (inactive)	9.55 µM (inactive)	2.86 µM (inactive)	2.68 µM (inactive)
O=C1NC(c2ccccc2)N=C2Oc3ccccc3C=C12 (stereo not given)	1.27 µM (inactive)	2.87 µM (inactive)	32.6 µM (inactive)	0.562 µM (active)	0.153	0.212 µM (active)	47.2 µM (inactive)	1.68 µM (inactive)	1.28 µM (inactive)	0.359 µM (active)	1.69 µM (inactive)	> 100 µM (inactive)	38.7 µM (inactive)	1.26 µM (inactive)	0.185 µM (active)	0.0424 µM (active)	3.27 µM (inactive)	0.621 µM (active)	0.065 µM (active)
CC1=NNC(=S)NCCCN2CCN(CCCNC(=S)NN=C(C)C=NNC(=S)NCCCN3CCN(CCCNC(=S)NN=C1)CC3)CC2	> 100 µM (inactive)	> 100 µM (inactive)	> 100 µM (inactive)	> 100 µM (inactive)	> 100	> 100 µM (inactive)	> 100 µM (inactive)	> 100 µM (inactive)	> 100 µM (inactive)	> 100 µM (inactive)	> 100 µM (inactive)	> 100 µM (inactive)	> 100 µM (inactive)	> 100 µM (inactive)	> 100 µM (inactive)	> 100 µM (inactive)	> 100 µM (inactive)	> 100 µM (inactive)	> 100 µM (inactive)
O=C1Nc2c(Cl)cc(Cl)cc2/C1=N/N=C/c1ccccc1O	18.7 µM (inactive)	29.2 µM (inactive)	15.1 µM (inactive)	21.5 µM (inactive)	17.8	21.1 µM (inactive)	27.1 µM (inactive)	20.4 µM (inactive)	21.2 µM (inactive)	30 µM (inactive)	20.7 µM (inactive)	27.6 µM (inactive)	20.1 µM (inactive)	19.5 µM (inactive)	20.4 µM (inactive)	30.6 µM (inactive)	18.3 µM (inactive)	22 µM (inactive)	23.5 µM (inactive)
CC1(C)OCC(C2OC3OC(C)(C)OC3C2N)O1 (stereo not given)	> 100 µM (inactive)	> 100 µM (inactive)	> 100 µM (inactive)	> 100 µM (inactive)	> 100	> 100 µM (inactive)	> 100 µM (inactive)	> 100 µM (inactive)	> 100 µM (inactive)	> 100 µM (inactive)	> 100 µM (inactive)	> 100 µM (inactive)	> 100 µM (inactive)	> 100 µM (inactive)	> 100 µM (inactive)	> 100 µM (inactive)	> 100 µM (inactive)	> 100 µM (inactive)	> 100 µM (inactive)
O=C(O)C(F)(OC(F)(F)C(F)(OC(F)(F)C(F)(F)C(F)(F)F)C(F)(F)F)C(F)(F)F (stereo not given)	> 100 µM (inactive)	> 100 µM (inactive)	> 100 µM (inactive)	> 100 µM (inactive)	> 100	> 100 µM (inactive)	63.7 µM (inactive)	> 100 µM (inactive)	> 100 µM (inactive)	> 100 µM (inactive)	> 100 µM (inactive)	> 100 µM (inactive)	> 100 µM (inactive)	> 100 µM (inactive)	> 100 µM (inactive)	> 100 µM (inactive)	78.5 µM (inactive)	> 100 µM (inactive)	> 100 µM (inactive)
N=C(N)NS(=O)(=O)c1ccc(NCc2cccc3c(=O)c4ccc(Cl)cc4oc23)cc1	> 9.02 µM (inactive)	7.6 µM (inactive)	7.18 µM (inactive)	1.82 µM (inactive)	4.93	1.38 µM (inactive)	3.86 µM (inactive)	5.71 µM (inactive)	2.84 µM (inactive)	7.45 µM (inactive)	3.57 µM (inactive)	> 11.2 µM (inactive)	> 12.2 µM (inactive)	> 10.4 µM (inactive)	9.4 µM (inactive)	> 10.3 µM (inactive)	> 9.27 µM (inactive)	5.41 µM (inactive)	11.1 µM (inactive)
C1CSC(Sc2nc(SC3=NCCS3)nc(SC3=NCCS3)n2)=N1	> 100 µM (inactive)	> 100 µM (inactive)	> 100 µM (inactive)	> 100 µM (inactive)	> 100	> 100 µM (inactive)	> 100 µM (inactive)	> 100 µM (inactive)	> 100 µM (inactive)	> 100 µM (inactive)	> 100 µM (inactive)	> 100 µM (inactive)	> 100 µM (inactive)	> 100 µM (inactive)	> 100 µM (inactive)	> 100 µM (inactive)	> 100 µM (inactive)	> 100 µM (inactive)	> 100 µM (inactive)
COC(=O)Cc1c2n(c3ccccc13)C(=O)N1c3ccccc3C(CC(=O)OC)C21 (stereo not given)	39.9 µM (inactive)	24.4 µM (inactive)	25.5 µM (inactive)	> 100 µM (inactive)	69	3.89 µM (inactive)	9.73 µM (inactive)	> 100 µM (inactive)	> 100 µM (inactive)	59.3 µM (inactive)	> 100 µM (inactive)	10.7 µM (inactive)	> 100 µM (inactive)	38.7 µM (inactive)	56.2 µM (inactive)	21.8 µM (inactive)	> 100 µM (inactive)	> 100 µM (inactive)	> 100 µM (inactive)
COc1cc([C@@H]2c3[nH]c4ccccc4c3C(Nc3ccc([N+](=O)[O-])cc3)[C@H]3COC(=O)N23)cc(OC)c1O (stereo not given in full)	0.14 µM (active)	0.118 µM (active)	0.611 µM (active)	0.0395 µM (active)	1.96	< 0.01 µM (active)	0.229 µM (active)	0.228 µM (active)	0.179 µM (active)	0.0361 µM (active)	0.014 µM (active)	1.74 µM (inactive)	0.291 µM (active)	0.847 µM (active)	0.0914 µM (active)	0.269 µM (active)	0.187 µM (active)	0.248 µM (active)	0.857 µM (active)
CC(=O)c1cccc(NC(=O)C(=O)c2c(O)oc3ccccc3c2=O)c1	> 100 µM (inactive)	> 100 µM (inactive)	> 100 µM (inactive)	> 100 µM (inactive)	> 100	10 µM (inactive)	> 100 µM (inactive)	> 100 µM (inactive)	> 100 µM (inactive)	> 100 µM (inactive)	> 100 µM (inactive)	> 100 µM (inactive)	> 100 µM (inactive)	10 µM (inactive)	> 100 µM (inactive)	> 100 µM (inactive)	> 100 µM (inactive)	> 100 µM (inactive)	> 100 µM (inactive)
CN(C)c1n2c3cc([N+](=O)[O-])ccc3[n+]3c(N(C)C)n4ccccc4c3c2c2cccc[n+]12.[O-][Cl+3]([O-])([O-])[O-].[O-][Cl+3]([O-])([O-])[O-]	> 100 µM (inactive)	> 100 µM (inactive)	> 100 µM (inactive)	> 100 µM (inactive)	> 100	> 100 µM (inactive)	> 100 µM (inactive)	> 100 µM (inactive)	> 100 µM (inactive)	8.57 µM (inactive)	> 100 µM (inactive)	> 100 µM (inactive)	> 100 µM (inactive)	> 100 µM (inactive)	> 100 µM (inactive)	> 100 µM (inactive)	38.9 µM (inactive)	> 100 µM (inactive)	> 100 µM (inactive)
Cc1ncc([N+](=O)[O-])n1CCNS(=O)(=O)CCCn1ccnc1[N+](=O)[O-]	> 100 µM (inactive)	> 100 µM (inactive)	> 100 µM (inactive)	> 100 µM (inactive)	> 100	> 100 µM (inactive)	> 100 µM (inactive)	> 100 µM (inactive)	> 100 µM (inactive)	> 100 µM (inactive)	> 100 µM (inactive)	> 100 µM (inactive)	> 100 µM (inactive)	> 100 µM (inactive)	> 100 µM (inactive)	> 100 µM (inactive)	> 100 µM (inactive)	> 100 µM (inactive)	> 100 µM (inactive)
